{"source": "ChEMBL document CHEMBL1145975", "about": "“Tricyclic indole-2-carboxylic acids: highly in vivo active and selective antagonists for the glycine binding site of the NMDA receptor” (J Med Chem, 2003)", "key": {"[1]": {"target": "T1, Glutamate receptor ionotropic, NMDA 1 (Rattus norvegicus, UniProt P35439)", "assay": "Affinity for glycine site of N-methyl-D-aspartate glutamate receptor determined by displacement of tritium labeled selective glycine antagonist [3H]- SM-18400", "assay_type": "functional"}, "Mus musculus [2]": {"test_system": "Mus musculus", "assay": "Number of mice protected from tonic seizures to that of number tested was determined when compound (3 mg/kg) was administered intravenously to 10 mice", "assay_type": "functional"}, "Mus musculus [3]": {"species": "Mus musculus", "assay": "Effective dose of compound required to inhibit N-methyl D-aspartate induced seizures in mice", "assay_type": "functional"}, "Rattus norvegicus [4]": {"test_system": "Rattus norvegicus", "assay": "Percent of reduction of cortical infarct volume at dose of 20 mg/kg bolus +20 mg/kg/hr continuous infusion was determined in normotensive rats", "assay_type": "functional"}, "[5]": {"target": "T1, Glutamate receptor ionotropic, NMDA 1", "assay": "Binding affinity for glycine site of N-methyl-D-aspartate glutamate receptor determined by displacement of [3H]- DCKA (5,7-dichlorokynurenic acid) in rat cortical membranes", "assay_type": "cell membranes, Membrane"}, "[6]": {"target": "Glutamate receptor ionotropic, kainate", "assay": "Binding affinity for non-NMDA receptor determined by displacement of [3H]- KA (kainic acid) in rat cortical membranes", "assay_type": "cell membranes, Membrane"}, "Rattus norvegicus [7]": {"species": "Rattus norvegicus", "assay": "Area under the concentration-time curve from time zero to infinity in whole brain homogenates was determined", "assay_type": "ADME, organism-based", "conditions": "in vivo"}, "[8]": {"target": "Glutamate receptor ionotropic, AMPA (Rattus norvegicus, UniProt P19490+P19491+P19492+P19493)", "assay": "Binding affinity for non-NMDA receptor determined by displacement of [3H]- AMPA (2-amino-(3-(3-hydroxy-5-methylisoxazole-4-yl)propanoic acid)) in rat cortical membranes", "assay_type": "cell membranes, Membrane"}, "[9]": {"target": "T1, Glutamate receptor ionotropic, NMDA 1", "assay": "Binding affinity for glycine site of N-methyl-D-aspartate glutamate receptor determined by displacement of [3H]- glycine in rat cortical membranes", "assay_type": "cell membranes, Membrane"}, "[10]": {"assay": "Binding affinity for glutamate site of N-methyl-D-aspartate glutamate receptor determined by displacement of [3H]- glutamate in rat cortical membranes", "assay_type": "cell membranes, Membrane"}}, "note": "pIC50, pKi: −log10 of the molar value."}
{"compound": "O=C(O)Cc1ccccc1NC(=O)C[C@@H]1CCc2cc(Cl)cc3[nH]c(C(=O)O)c1c23", "values": [{"measurement": "pIC50", "setting": "[1]", "result": 8.12}, {"measurement": "No. of protected/tested", "setting": "Mus musculus [2]", "result": 3}]}
{"compound": "NCc1ccc(NC(=O)C[C@@H]2CCc3cc(Cl)cc4[nH]c(C(=O)O)c2c34)cc1", "values": [{"measurement": "pIC50", "setting": "[1]", "result": 7.74}, {"measurement": "No. of protected/tested", "setting": "Mus musculus [2]", "result": 3}]}
{"compound": "C[C@H](C(=O)O)c1cc(CN)ccc1NC(=O)C[C@@H]1CCc2cc(Cl)cc3[nH]c(C(=O)O)c1c23", "values": [{"measurement": "pIC50", "setting": "[1]", "result": 7.54}, {"measurement": "ED50", "setting": "Mus musculus [3]", "result": 3.7, "unit": "mg/kg"}, {"measurement": "No. of protected/tested", "setting": "Mus musculus [2]", "result": 4}]}
{"compound": "C[C@@H](C(=O)O)c1cc(CN)ccc1NC(=O)C[C@@H]1CCc2cc(Cl)cc3[nH]c(C(=O)O)c1c23", "values": [{"measurement": "Cortical infarct volume", "setting": "Rattus norvegicus [4]", "result": 84, "unit": "%"}, {"measurement": "pIC50", "setting": "[1]", "result": 8.57}, {"measurement": "ED50", "setting": "Mus musculus [3]", "result": 2.3, "unit": "mg/kg"}, {"measurement": "pKi", "setting": "[5]", "result": 9.00}, {"measurement": "pKi", "setting": "[6]", "result": "< 5.00"}, {"measurement": "AUC", "setting": "Rattus norvegicus [7]", "result": 10, "unit": "µg·min/g"}, {"measurement": "pKi", "setting": "[8]", "result": "< 5.00"}, {"measurement": "No. of protected/tested", "setting": "Mus musculus [2]", "result": 5}, {"measurement": "pKi", "setting": "[9]", "result": 7.96}, {"measurement": "pKi", "setting": "[10]", "result": "< 5.00"}]}
{"compound": "NCc1ccc(NC(=O)C[C@@H]2CCc3cc(Cl)cc4[nH]c(C(=O)O)c2c34)c(CC(=O)O)c1", "values": [{"measurement": "Cortical infarct volume", "setting": "Rattus norvegicus [4]", "result": 30, "unit": "%"}, {"measurement": "pIC50", "setting": "[1]", "result": 8.82}, {"measurement": "ED50", "setting": "Mus musculus [3]", "result": 1.8, "unit": "mg/kg"}, {"measurement": "No. of protected/tested", "setting": "Mus musculus [2]", "result": 5}]}
{"compound": "O=C(C[C@@H]1CCc2cc(Cl)cc3[nH]c(C(=O)O)c1c23)Nc1ccccc1", "values": [{"measurement": "pIC50", "setting": "[1]", "result": 7.72}, {"measurement": "No. of protected/tested", "setting": "Mus musculus [2]", "result": 3}]}
{"compound": "NCc1ccc(NC(=O)C[C@@H]2CCc3cc(Cl)cc4[nH]c(=O)c(=O)n2c34)c(OCC(=O)O)c1", "values": [{"measurement": "Cortical infarct volume", "setting": "Rattus norvegicus [4]", "result": 50, "unit": "%"}, {"measurement": "pIC50", "setting": "[1]", "result": 9.00}, {"measurement": "ED50", "setting": "Mus musculus [3]", "result": 0.41, "unit": "mg/kg"}, {"measurement": "AUC", "setting": "Rattus norvegicus [7]", "result": 3.3, "unit": "µg·min/g"}, {"measurement": "No. of protected/tested", "setting": "Mus musculus [2]", "result": 10}]}
{"compound": "NCc1ccc(NC(=O)C[C@@H]2CCc3cc(Cl)cc4[nH]c(C(=O)O)c2c34)c(OCC(=O)O)c1", "note": "(stereo in doubt; 3a)", "values": [{"measurement": "pIC50", "setting": "[1]", "result": 8.92}, {"measurement": "ED50", "setting": "Mus musculus [3]", "result": 5, "unit": "mg/kg"}, {"measurement": "No. of protected/tested", "setting": "Mus musculus [2]", "result": 2}]}
{"compound": "NCc1ccc(NC(=O)C[C@@H]2CCc3cc(Cl)cc4[nH]c(C(=O)O)c2c34)c(OCC(=O)O)c1", "note": "(stereo in doubt; 3b)", "values": [{"measurement": "pIC50", "setting": "[1]", "result": 7.48}]}
